This note sets out measurements from article PMC4727778, “Synthesis and Antifungal Evaluation of Novel N-Alkyl Tetra- and Perhydroquinoline Derivatives” (Scientia Pharmaceutica, 2014).

For series [1], the system named is Streptococcus entericus (DSZM-Nr. 14446). Nature of the series: Agar diffusion assay. The series is classed as cell-based. As to conditions: S. entericus, GI = growth inhibition, read-out: diameter of zones of total inhibition. The procedure:
(§1) The resulting compounds and known compounds, 1-undecylpiperidine (7) and 1-decylpiperazine (8a), as well as 1-methyl-4-undecylpiperazine (8b) (prepared in the same way), were tested in an agar diffusion assay against Gram-positive (Staphylococcus equorum (DSMZ-Nr. 20675), Streptococcus entericus (DSZM-Nr. 14446)) and Gram-negative bacteria (Escherichia coli (DSMZ-Nr. 426), Pseudomonas marginalis (DSMZ-Nr. 7527)), as well as the fungi Yarrowia lipolytica (DSMZ-Nr. 1345), Candida glabrata (DSMZ-Nr.11226), Aspergillus niger (DSMZ-Nr. 1988), and Hyphopichia burtonii (DSMZ-Nr. 70663) (Table 1).
On the technique in general: A growth-free zone around the sample is the usual read-out of agar diffusion tests.

The subject of series [2] is Candida glabrata (DSMZ-Nr.11226). Kind of series: Agar diffusion assay. The series is classed as cell-based. As to conditions: Nakaseomyces glabratus, C. glabrata, GI = growth inhibition, read-out: diameter of zones of total inhibition. The method, then: as §1
In series [3] the test system is Pseudomonas marginalis (DSMZ-Nr. 7527). Kind of series: Agar diffusion assay. Format: cell-based. As to conditions: P. marginalis, GI = growth inhibition, read-out: diameter of zones of total inhibition. The procedure:
as §1

The subject of series [4] is Hyphopichia burtonii (DSMZ-Nr. 70663). Kind of series: Agar diffusion assay. As to conditions: H. burtonii, GI = growth inhibition, read-out: diameter of zones of total inhibition. Format: cell-based. The method, then:
as §1

Series [5] concerns Aspergillus niger (DSMZ-Nr. 1988). Nature of the series: Agar diffusion assay. The series is classed as cell-based. As to conditions: A. niger, GI = growth inhibition, read-out: diameter of zones of total inhibition. The procedure:
as §1

Series [6] deals with Yarrowia lipolytica (DSMZ-Nr. 1345). Kind of series: Agar diffusion assay. Format: cell-based. As to conditions: Y. lipolytica, GI = growth inhibition, read-out: diameter of zones of total inhibition. The procedure: as §1
Series [7] concerns Escherichia coli (DSMZ-Nr. 426). Kind of series: Agar diffusion assay. As to conditions: E. coli, GI = growth inhibition, read-out: diameter of zones of total inhibition. Format: cell-based. The method, then:
as §1

Series [8] has as its system Staphylococcus equorum (DSMZ-Nr. 20675). Nature of the series: Agar diffusion assay. The series is classed as cell-based. As to conditions: read-out: diameter of zones of total inhibition. The procedure:
as §1

The test system of series [9] is human leukemia cell line (HL 60). Kind of series: MTT test (cytotoxicity). As to conditions: HL 60 cell line, arithmetic average of three determinations. The series is classed as cell-based. The method, then:
The cytotoxicity of the compounds 3a–d, 5a–d, and 8b was determined in an MTT test against a human leukemia cell line (HL 60).
For orientation: Tetrazolium dyes change colour on reduction, which living cells bring about.

The subject of series [10] is Yarrowia lipolytica. Nature of the series: Microdilution assay (MIC). The series is classed as cell-based. As to conditions: hydrochlorides used, arithmetic average of two determinations, read-out: Minimal inhibitory concentration (MIC). The procedure: (§2) For comparison, the N-undecylperhydroisoquinoline (C) was also tested here. For solubility reasons, the hydrochlorides were used in this assay (Table 2).
(In general: Dilution methods test growth across graded concentrations, often in twofold steps.)

Series [11] relates to Candida glabrata. Kind of series: Microdilution assay (MIC). Format: cell-based. As to conditions: Nakaseomyces glabratus, hydrochlorides used, arithmetic average of two determinations, read-out: Minimal inhibitory concentration (MIC). The method, then:
as §2

In series [12] the test system is Saccharomyces cerevisiae. Kind of series: Microdilution assay (MIC). As to conditions: hydrochlorides used, arithmetic average of two determinations, read-out: Minimal inhibitory concentration (MIC). Format: cell-based. The procedure: as §2

Molecules are shown by their SMILES. Values after ≈ are worked out from the molar mass of the structure shown. Counter-ions that a name gives are not always drawn.

One may read the melting point as the temperature, or range, at which the solid turns liquid. Broadly, the IC50 is the concentration that inhibits the measured activity by half. A high value points to a need for much substance.

`CCCCCCCCCN1CCC[C@@H]2CCCC[C@H]21` (racemic) (as salt: hydrochloride) [Compound 5a, (±)-trans-1-Nonyldecahydroquinoline hydrochloride] had a melting point of 130 °C.

`CCCCCCCCCCN1CCC[C@@H]2CCCC[C@H]21` (racemic) (as salt: hydrochloride) [Compound 5b, (±)-trans-1-Decyldecahydroquinoline hydrochloride] registered a melting point of 128 °C.

Compound `CCCCCCCCCCCN1CCC[C@@H]2CCCC[C@H]21` (racemic) (as salt: hydrochloride) [Compound 5c, (±)-trans-1-Undecyldecahydroquinoline hydrochloride] came in with a melting point of 119 °C.

Regarding `CCCCCCCCCCCCN1CCC[C@@H]2CCCC[C@H]21` (racemic) (as salt: hydrochloride) [Compound 5d, (±)-trans-1-Dodecyldecahydroquinoline hydrochloride], the melting point was 113 °C.

For the compound `CCCCCCCCCN1CCC[C@@H]2CCCC[C@H]21` (racemic) [Compound 4a, (±)-trans-1-Nonyldecahydroquinoline], the zone of inhibition at 50 µg/disc came out at 20 mm in [1]; 14 mm in series [2]; 13 mm in series [3]; 12 mm in series [4]; 7 mm in series [5]; 15 mm in series [6]. Further, the zone of inhibition at 50 µg/disc in series [7] was 0 mm; in series [8], 10 mm.

With `CCCCCCCCCCN1CCC[C@@H]2CCCC[C@H]21` (racemic) [Compound 4b, (±)-trans-1-Decyldecahydroquinoline], the zone of inhibition at 50 µg/disc in [1] was 22 mm; in [2], 16 mm; in [3], 15 mm; in series [4], 20 mm; in series [5] it was 12 mm; in series [6], 19 mm. The zone of inhibition at 50 µg/disc in series [7] came to 0 mm; in [8], 13 mm.

With `CCCCCCCCCCCN1CCC[C@@H]2CCCC[C@H]21` (racemic) [Compound 4c, (±)-trans-1-Undecyldecahydroquinoline], the zone of inhibition at 50 µg/disc in [1] amounted to 20 mm; in series [2] it was 13 mm; in series [3] it was 11 mm; in series [4], 13 mm; in series [5] it was 14 mm; in series [6], 13 mm. Moreover, the zone of inhibition at 50 µg/disc came out at 0 mm in series [7] and 12 mm in [8].

For `CCCCCCCCCCCCN1CCC[C@@H]2CCCC[C@H]21` (racemic) [Compound 4d, (±)-trans-1-Dodecyldecahydroquinoline], the zone of inhibition at 50 µg/disc was determined as 12 mm in series [1]; 9 mm in series [2]; 14 mm in [3]; 11 mm in series [4]; 9 mm in [6]; 0 mm in series [7]. The zone of inhibition at 50 µg/disc in [8] stood at 9 mm.

As to `CCCCCCCCCN1CCCc2ccccc21` [Compound 2a, 1-Nonyl-1,2,3,4-tetrahydroquinoline], the zone of inhibition at 50 µg/disc in [1], in series [2], in [3], in [4], in series [5] and in [6] was 0 mm each time. Also, the zone of inhibition at 50 µg/disc in series [7] and in [8] was 0 mm in each case.

In the case of `CCCCCCCCCCN1CCCc2ccccc21` [Compound 2b, 1-Decyl-1,2,3,4-tetrahydroquinoline], the zone of inhibition at 50 µg/disc in series [1], in series [2], in series [3], in series [4], in series [5] and in series [6] was 0 mm throughout. The zone of inhibition at 50 µg/disc in [7] and in [8] was 0 mm in each case.

With `CCCCCCCCCCCN1CCCc2ccccc21` [Compound 2c, 1-Undecyl-1,2,3,4-tetrahydroquinoline], the zone of inhibition at 50 µg/disc in series [1], in series [2], in series [3], in series [4], in [5] and in series [6] was 0 mm in each case. Besides, the zone of inhibition at 50 µg/disc in series [7] and in series [8] was 0 mm throughout.

On to `CCCCCCCCCCCCN1CCCc2ccccc21` [Compound 2d, 1-Dodecyl-1,2,3,4-tetrahydroquinoline], for which the zone of inhibition at 50 µg/disc in [1], in series [2], in series [3], in series [4], in series [5] and in [6] was 0 mm throughout. Further, the zone of inhibition at 50 µg/disc in series [7] and in [8] was 0 mm throughout.

Turning to `CCCCCCCCCN1CCCc2ccccc21.Cl` [Compound 3a, 1-Nonyl-1,2,3,4-tetrahydroquinoline hydrochloride], the melting point turned out to be 65 °C. The compound further yielded an IC50 in [9] of 19 µM.

Turning to `CCCCCCCCCCN1CCCc2ccccc21.Cl` [Compound 3b, 1-Decyl-1,2,3,4-tetrahydroquinoline hydrochloride], the melting point was 61 °C. For the same compound, in series [9], it took 60 µM to reach half-maximal inhibition (IC50).

Regarding `CCCCCCCCCCCN1CCCc2ccccc21.Cl` [Compound 3c, 1-Undecyl-1,2,3,4-tetrahydroquinoline hydrochloride], the melting point came out at 52 °C. This compound also gave an IC50 in series [9] of 16 µM.

The compound `CCCCCCCCCCCCN1CCCc2ccccc21.Cl` [Compound 3d, 1-Dodecyl-1,2,3,4-tetrahydroquinoline hydrochloride] had a melting point of 49 °C. Also, in [9], the 50% inhibitory concentration (IC50) amounted to 15 µM.

`CCCCCCCCCCCC(=O)N1CCCc2ccccc21` [Compound 6, N-Dodecanoyl-1,2,3,4-tetrahydroquinoline] displayed a melting point of 37 °C. Besides, the zone of inhibition at 50 µg/disc in series [1] is 0 mm. Also, in series [2], the zone of inhibition at 50 µg/disc was 0 mm. Moreover, the zone of inhibition at 50 µg/disc in [3] was determined as 0 mm. In addition, in [4], the zone of inhibition at 50 µg/disc worked out at 0 mm. Further, the zone of inhibition at 50 µg/disc in series [5] came out at 0 mm. For the same compound, the zone of inhibition at 50 µg/disc in series [6] came to 0 mm. Further, the zone of inhibition at 50 µg/disc in series [7] was found to be 0 mm. For the same compound, in [8], the zone of inhibition at 50 µg/disc came to 0 mm.

For the compound `CCCCCCCCCCN1CCNCC1` [Compound 8a, 1-decylpiperazine, reference compound], the MIC in series [10] was 10 µg/mL (≈ 44.2 µM); in [11] it was 45 µg/mL (≈ 199 µM); in [12], 5 µg/mL (≈ 22.1 µM). The zone of inhibition at 50 µg/disc in series [1] came to 17 mm; in series [2], 8 mm; in [3], 8 mm; in series [4] it was 25 mm; in series [5], 20 mm; in series [6], 22 mm. Also, the zone of inhibition at 50 µg/disc in series [7] came to 7 mm; in series [8], 13 mm.

Turning to `CN(C/C=C/C#CC(C)(C)C)Cc1cccc2ccccc12` [terbinafine, reference compound], the zone of inhibition at 50 µg/disc in series [2] worked out at 0 mm; in [4] it was 15 mm; in series [5], 26 mm; in [6] it was 12 mm.

For `CN(C)[C@@H]1C(O)=C(C(N)=O)C(=O)[C@@]2(O)C(O)=C3C(=O)c4c(O)cccc4[C@@](C)(O)[C@H]3C[C@@H]12` [tetracycline, reference compound], the zone of inhibition at 50 µg/disc in [1] is 10 mm; in series [2] it was 0 mm; in series [3] it was 12 mm; in series [4], 0 mm; in series [5] it was 0 mm; in series [6], 0 mm. Moreover, the zone of inhibition at 50 µg/disc in series [7] amounted to 26 mm; in [8], 30 mm.
